Here are results for 15 compounds from patent US10689377B2 (Mirati Therapeutics, Inc., priority 2017, dated 2020).

Like-named read-outs stand apart in the source and are kept apart here.

The target of experiment [1] is KRas G12C (Homo sapiens, UniProt P01116, C118S/C51S/C80L/G12C). In words: KRas G12C Modification Assay (LCMS detection of covalent adduct). It is filed as binding. The procedure, abridged:
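Intact protein analysed by LC/MS with deconvolution; unmodified protein signal normalized to no-compound control and reported as percent of control (POC).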

Experiment [2] has as its target KRas G12C (Homo sapiens, UniProt P01116, G12C). In words: Cellular inhibition of KRas G12C measured by Phospho-ERK in NCI-H358 cells. It is filed as cell-based. An outline of the steps:
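Following 8-12 h attachment, NCI-H358 cells got serially diluted compound (0.5% DMSO) for 3 hours. Cells were then fixed, permeabilized with cold methanol, and stained for pERK(Thr202/Tyr204) and GAPDH. Ratios were converted to percent of DMSO control, with IC50 obtained by four-parameter regression.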

Setting [3] is: normalized percent of control, 5 μM concentration for 3 hours.
The mark [4] stands for this setting: pERK(Thr202/Tyr204) normalized with GAPDH, NCI-H358 cells, 3 hours, read-out: IC50.

On to `C=C(F)C(=O)N1CCN(c2nc(OCCCN3C[C@@H]4C[C@H]3CO4)nc3c2CCN(c2cccc4cccc(Cl)c24)C3)C[C@@H]1CC#N` [Example 564, 2-[(2S)-4-[7-(8-Chloro-1-naphthyl)-2-[3-[(1S,4S)-2-oxa-5-azabicyclo[2.2.1]heptan-5-yl]propoxy]-6,8-dihydro-5H-pyrido[3,4-d]pyrimidin-4-yl]-1-(2-fluoroprop-2-enoyl)piperazin-2-yl]acetonitrile], for which the POC entry in experiment [1] (setting [3]) is “C (“C”>50% POC)”. In experiment [2] (setting [4]), the IC50 (in general, the midpoint of a concentration-inhibition curve) is 0.1 to 1000 nM.

Turning to `C=C(F)C(=O)N1CCN(c2nc(OC[C@@H]3CCC(=O)N3C)nc3c2CCN(c2cccc4cccc(Cl)c24)C3)C[C@@H]1CC#N` [Example 572, 2-[(2S)-4-[7-(8-Chloro-1-naphthyl)-2-[[(2S)-1-methyl-5-oxo-pyrrolidin-2-yl]methoxy]-6,8-dihydro-5H-pyrido [3,4-d]pyrimidin-4-yl]-1-(2-fluoroprop-2-enoyl)piperazin-2-yl] acetonitrile], the POC entry in experiment [1] (setting [3]) is “C (“C”>50% POC)”. For the same compound, the IC50 in experiment [2] (setting [4]) is above 1000 nM.

With `C=CC(=O)N1CCN(c2nc(OCCN(C)C)nc3c2CCN(c2cc(O)cc4ccccc24)C3)CC1CCO` (stereo not drawn) [Example 171, 1-(4-(2-(2-(dimethylamino)ethoxy)-7-(3-hydroxynaphthalen-1-yl)-5,6,7,8-tetrahydropyrido[3,4-d]pyrimidin-4-yl)-2-(2-hydroxyethyl)piperazin-1-yl)prop-2-en-1-one], the POC result in experiment [1] (5 µM) is “C (key: “A”≤25% POC; “B”>25% POC-≤50% POC; “C”>50% POC)”. Also, the IC50 in experiment [2] (IC50) is above 1000 nM.

Regarding `C=C(F)C(=O)N1CCN(c2nc(OC[C@@H]3CCCN3C)nc3c2CCN(c2cccc4cccc(C(C)C)c24)C3)C[C@@H]1CC#N` [Example 591], in experiment [1] (setting [3]), the POC result was “B (“B”>25% POC-≤50% POC)”. In addition, in experiment [2] (setting [4]), the IC50 is above 1000 nM.

As to `C=CC(=O)N1CCN(c2nc(OC[C@@H]3CCCN3C(C)C)nc3c2CCN(c2cccc4ccccc24)C3)CC1CC#N` (stereo partly drawn) [Example 252, 2-[4-[2-[[(2S)-1-isopropylpyrrolidin-2-yl]methoxy]-7-(1-naphthyl)-6,8-dihydro-5H-pyrido[3,4-d]pyrimidin-4-yl]-1-prop-2-enoyl-piperazin-2-yl]acetonitrile], the POC entry in experiment [1] (setting [3]) is “C (“C”>50% POC)”. Besides, in experiment [2] (setting [4]), the IC50 is 0.1 to 1000 nM.

Consider `CO[C@@H]1C[C@@H](COc2nc3c(c(N4CCN(C(=O)/C=C/CF)[C@@H](CC#N)C4)n2)CCN(c2cccc4cccc(Cl)c24)C3)N(C)C1` [Example 583, 2-[(2S)-4-[7-(8-chloro-1-naphthyl)-2-[[(2S,4R)-4-methoxy-1-methyl-pyrrolidin-2-yl]methoxy]-6,8-dihydro-5H-pyrido[3,4-d]pyrimidin-4-yl]-1-[(E)-4-fluorobut-2-enoyl]piperazin-2-yl]acetonitrile], for which the POC result in experiment [1] (setting [3]) is “C (“C”>50% POC)”. Further, in experiment [2] (setting [4]), the IC50 was 0.1 to 1000 nM.

In the case of `C=CC(=O)N1CCN(c2nc(OC[C@@H]3CCCN3C)nc3c2CCN(c2c(C)c(O)cc4ccccc24)C3)CC1` [Example 175, (S)-1-(4-(7-(3-hydroxy-2-methylnaphthalen-1-yl)-2-((1-methylpyrrolidin-2-yl)methoxy)-5,6,7,8-tetrahydropyrido[3,4-d]pyrimidin-4-yl)piperazin-1-yl)prop-2-en-1-one], in experiment [1] (setting [3]), the POC entry is reported as “C (“C”>50% POC)”. Moreover, the IC50 in experiment [2] (setting [4]) lay in the range of 0.1 to 1000 nM.

In the case of `C=C(F)C(=O)N1CCN(c2nc(OC[C@@H]3CCN(C)C3)nc3c2CCN(c2cccc4cccc(C)c24)C3)C[C@@H]1CC#N` [Example 562, 2-[(2S)-1-(2-Fluoroprop-2-enoyl)-4-[7-(8-methyl-1-naphthyl)-2-[[(3R)-1-methylpyrrolidin-3-yl]methoxy]-6,8-dihydro-5H-pyrido[3,4-d]pyrimidin-4-yl]piperazin-2-yl]acetonitrile], the POC result in experiment [1] (setting [3]) is recorded as “C (“C”>50% POC)”. In addition, the IC50 in experiment [2] (setting [4]) lay in the range of 0.1 to 1000 nM.

`C=C(F)C(=O)N1CCN(c2nc(OC[C@H]3C[C@@H](F)CN3C)nc3c2CCN(c2cccc4cccc(Cl)c24)C3)C[C@@H]1CC#N` [Example 558, 2-((S)-4-(7-(8-Chloronaphthalen-1-yl)-2-(((2R,4R)-4-fluoro-1-methylpyrrolidin-2-yl)methoxy)-5,6,7,8-tetrahydropyrido[3,4-d]pyrimidin-4-yl)-1-(2-fluoroacryloyl)piperazin-2-yl)acetonitrile]: the POC entry in experiment [1] (setting [3]) is listed as “C (“C”>50% POC)”. Besides, the IC50 in experiment [2] (setting [4]) lay in the range of 0.1 to 1000 nM.

As for `C=CC(=O)N1CCN(c2nc(OC[C@@H]3CCCN3C)nc3c2CCN(c2cccc4ccccc24)C3)C[C@@H]1CC#N` [Example 234, 2-((S)-1-acryloyl-4-(2-(((S)-1-methylpyrrolidin-2-yl)methoxy)-7-(naphthalen-1-yl)-5,6,7,8-tetrahydropyrido[3,4-d]pyrimidin-4-yl)piperazin-2-yl)acetonitrile], the POC result in experiment [1] (setting [3]) is “C (“C”>50% POC)”. The IC50 in experiment [2] (setting [4]) fell in the range of 0.1 to 1000 nM.

On to `C=C(F)C(=O)N1CCN(c2nc(OC[C@@H]3CCCN3C)nc3c2CCN(c2cccc4cccc(C(F)(F)F)c24)C3)C[C@@H]1CC#N` [Example 589, 2-((S)-1-(2-Fluoroacryloyl)-4-(2-(((S)-1-methylpyrrolidin-2-yl)methoxy)-7-(8-(trifluoromethyl)naphthalen-1-yl)-5,6,7,8-tetrahydropyrido[3,4-d]pyrimidin-4-yl)piperazin-2-yl)acetonitrile], for which, in experiment [1] (setting [3]), the POC entry is recorded as “C (“C”>50% POC)”. Also, the IC50 in experiment [2] (setting [4]) fell in the range of 0.1 to 1000 nM.

As to `C=CC(=O)N1CCN(c2nc(OCCCN3CCOCC3)nc3c2CCN(c2c(F)c(O)cc4ccccc24)C3)CC1` [Example 165, 1-[4-[7-(2-fluoro-3-hydroxy-1-naphthyl)-2-(3-morpholinopropoxy)-6,8-dihydro-5H-pyrido[3,4-d]pyrimidin-4-yl]piperazin-1-yl]prop-2-en-1-one], the POC entry in experiment [1] (5 µM) was “C (key: “A”≤25% POC; “B”>25% POC-≤50% POC; “C”>50% POC)”. The IC50 in experiment [2] (setting [4]) is above 1000 nM.

For `Cc1cccc2cccc(N3CCc4c(nc(OC[C@@H]5CC(F)(F)CN5C)nc4N4CCN(C(=O)/C=C/CF)[C@@H](CC#N)C4)C3)c12` [Example 529, 2-((S)-4-(2-(((S)-4,4-difluoro-1-methylpyrrolidin-2-yl)methoxy)-7-(8-methylnaphthalen-1-yl)-5,6,7,8-tetrahydropyrido[3,4-d]pyrimidin-4-yl)-1-((E)-4-fluorobut-2-enoyl)piperazin-2-yl)acetonitrile], the POC result in experiment [1] (setting [3]) is on record as “C (“C”>50% POC)”. Further, the IC50 in experiment [2] (setting [4]) is 0.1 to 1000 nM.

On to `C=CC(=O)N1CCN(c2nc(OC[C@@H]3C[C@@H](F)CN3C)nc3c2CCN(c2cccc4ccccc24)C3)CC1CC#N` (stereo partly drawn) [Example 220, 2-(1-acryloyl-4-(2-(((2S,4R)-4-fluoro-1-methylpyrrolidin-2-yl)methoxy)-7-(naphthalen-1-yl)-5,6,7,8-tetrahydropyrido[3,4-d]pyrimidin-4-yl)piperazin-2-yl)acetonitrile], for which the POC result in experiment [1] (setting [3]) is reported as “C (“C”>50% POC)”. Besides, the IC50 in experiment [2] (setting [4]) lay within 0.1 to 1000 nM.

In the case of `C=CC(=O)N1CCN(c2nc(OC[C@@H]3CCCN3C)nc3c2CCN(c2c(C)ccc4[nH]ncc24)C3)CC1CC#N` (stereo partly drawn) [Example 148, 2-[4-[7-(5-methyl-1H-indazol-4-yl)-2-[[(2S)-1-methylpyrrolidin-2-yl]methoxy]-6,8-dihydro-5H-pyrido[3,4-d]pyrimidin-4-yl]-1-prop-2-enoyl-piperazin-2-yl]acetonitrile], the POC result in experiment [1] (setting [3]) is reported as “C (“C”>50% POC)”. Besides, the IC50 in experiment [2] (setting [4]) is 0.1 to 1000 nM.
